Results on 20 molecules are retold here after patent publication US9249085B2, “Aniline derivatives, their preparation and their therapeutic application” (FOVEA PHARMACEUTICALS, priority 2011, dated 2016).

In test [1] the target is recombinant human prostanoid EP2 receptor (Homo sapiens (Human), UniProt P43116). The test is described as follows: Human prostanoid EP2 receptor cellular functional assay (cAMP, HTRF). It is filed as cell-based. Conditions: for EC50: CHO cells expressing recombinant human EP2, cAMP by HTRF, 30 min, 37° C., read-out: In vitro functional assay EP2 (h) EC50; for In vitro functional assay EP2 (h) % response: percent of control specific agonist response (10 μM PGE2). The method, then: Test 1.2: Human Prostanoid EP2 Receptor Cellular Functional Assay
Human CHO cells expressing the recombinant human prostanoid EP2 receptor were suspended in assay medium (HBSS buffer (Invitrogen) containing 20 mM HEPES (pH7.4) and 500 μM isobutyl-methylxanthine IBMX) and plated out to yield approximately 1×10^4 cells/well in a 96-well. Following this, cells were incubated with agonists for 30 min in the presence of the test compounds. For stimulated control measurements, separate assay wells contain 10 μM PGE2 (control specific agonist). All incubations were carried out at 37° C. in a 5% CO2 atmosphere. Following incubation, the amount of cAMP in each well was determined by HTRF method. The cells are lysed and the fluorescence acceptor (D2-labeled cAMP) and fluorescence donor (anti-cAMP antibody labeled with europium cryptate) are added. After 60 min at room temperature, the fluorescence transfer is measured at λ ex=337 nm and λ em=620 and 665 nm using a microplate reader (Rubystar, BMG).
The cAMP concentration is determined by dividing the signal measured at 665 nm by that measured at 620 nm (ratio).
The standard reference agonist PGE2 was tested at several concentrations to generate a concentration-response curve to determined EC50.
(§1) Analysis and Expression of Results
The results are expressed as a percent of control specific agonist response ((measured specific response/control specific agonist response)×100) obtained in the presence of the test compounds. The EC50 values (concentration producing a half-maximal specific response) were determined by non-linear regression analysis of the concentration-response curves generated with mean replicate values using Hill equation curve fitting (Y=D+[(A−D)/(1+(C/C50)nH)], where Y=specific response, D=minimum specific response, A=maximum specific response, C=compound concentration, and C50=EC50 and nH=slope factor). This analysis was performed using a software developed at Cerep (Hill software) and validated by comparison with data generated by the commercial software SigmaPlot® 4.0 for Windows® (© 1997 by SPSS Inc.).
For orientation: In TR-FRET formats the signal depends on donor and acceptor labels being close together.

In test [2] the target is recombinant human prostanoid EP4 receptor (Homo sapiens (Human), UniProt P35408). The test is described as follows: Human prostanoid EP4 receptor binding assay ([3H]PGE2 displacement). Conditions: HEK-293(T) membranes, 0.5 nM [3H]PGE2, 120 min at 22° C.; NC: not calculable; read-out: In vitro potency EP4 (h) IC50. The procedure: Test 1.1: Human Prostanoid EP4 Receptor Binding Assay
Cell membrane homogenate from Human embryonic kidney HEK-293(T) cells expressing recombinant human prostanoid EP4 receptor was used to perform Prostanoid receptor radioligand binding assays.
The competition reaction was initiated by incubation of membrane protein homogenate (20 μg protein) for 120 min at 22° C. with 0.5 nM [^3H]PGE2 ligand in the absence or presence of the test compound in a buffer containing 10 mM MES/KOH (pH 6.0), 10 mM MgCl2 and 1 mM EDTA.
Non-specific binding was determined in the presence of 10 μM PGE2 (the corresponding non-radioactive prostanoid). Affinity of the compound binding to hEP4 receptor was measured by displacement of the radiolabeled ligand in the presence of varying doses of tested compound.
Incubations were terminated by rapid filtration under vacuum through glass fiber filters (GF/B, Packard) presoaked with 0.3% PEI and washed several times with ice-cold 50 mM Tris-HCl using a 96-sample cell harvester (Unifilter, Packard).
The filters were dried and the residual radioactivity bound to the individual filters determined with addition of scintillation cocktail (Microscint 0, Packard) by a scintillation counter (Topcount, Packard).
The results were expressed as a percent inhibition of the control radioligand specific binding.
The standard reference compound PGE2, was tested in at several concentrations to obtain a competition curve to determined IC50.
as §1
The specific ligand binding to the receptors is defined as the difference between the total binding and the nonspecific binding determined in the presence of an excess of unlabelled ligand. The results are expressed as a percent of control specific binding ((measured specific binding/control specific binding)×100) obtained in the presence of the test compounds. The IC50 values (concentration causing a half-maximal inhibition of control specific binding) and Hill coefficients (nH) were determined by non-linear regression analysis of the competition curves generated with mean replicate values using Hill equation curve fitting (Y=D+[(A−D)/(1+(C/C50)nH)], where Y=specific binding, D=minimum specific binding, A=maximum specific binding, C=compound concentration, C50=IC50, and nH=slope factor). This analysis was performed using a software developed at Cerep (Hill software) and validated by comparison with data generated by the commercial software SigmaPlot® 4.0 for Windows® (© 1997 by SPSS Inc.). The inhibition constants (Ki) were calculated using the Cheng Prusoff equation (Ki=IC50/(1+(L/KD)), where L=concentration of radioligand in the assay, and KD=affinity of the radioligand for the receptor). A scatchard plot is used to determine the Kd.

Each structure is given as a SMILES string.

recombinant human prostanoid EP4 receptor, sequence (P35408 whole entry): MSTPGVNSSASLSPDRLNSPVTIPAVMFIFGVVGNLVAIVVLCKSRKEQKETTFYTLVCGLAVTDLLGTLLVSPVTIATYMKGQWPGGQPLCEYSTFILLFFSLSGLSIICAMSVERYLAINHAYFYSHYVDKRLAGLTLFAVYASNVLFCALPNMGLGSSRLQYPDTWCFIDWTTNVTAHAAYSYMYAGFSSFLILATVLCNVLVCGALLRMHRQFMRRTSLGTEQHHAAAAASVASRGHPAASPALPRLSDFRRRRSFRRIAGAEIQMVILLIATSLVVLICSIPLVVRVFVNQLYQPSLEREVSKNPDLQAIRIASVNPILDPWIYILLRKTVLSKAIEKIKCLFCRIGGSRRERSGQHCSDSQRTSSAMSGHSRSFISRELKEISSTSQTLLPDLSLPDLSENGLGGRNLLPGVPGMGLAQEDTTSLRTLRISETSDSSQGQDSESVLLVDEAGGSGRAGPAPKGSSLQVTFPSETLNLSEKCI
recombinant human prostanoid EP2 receptor, sequence (P43116 whole entry): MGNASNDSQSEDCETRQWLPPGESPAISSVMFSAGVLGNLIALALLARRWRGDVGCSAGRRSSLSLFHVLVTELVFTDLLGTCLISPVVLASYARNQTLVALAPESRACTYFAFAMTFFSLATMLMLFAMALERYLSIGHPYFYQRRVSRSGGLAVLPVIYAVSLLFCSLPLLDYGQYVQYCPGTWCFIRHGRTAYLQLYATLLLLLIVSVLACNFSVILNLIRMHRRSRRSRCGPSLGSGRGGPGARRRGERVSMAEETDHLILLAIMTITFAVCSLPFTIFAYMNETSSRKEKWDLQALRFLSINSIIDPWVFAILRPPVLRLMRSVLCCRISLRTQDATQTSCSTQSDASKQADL

In general, EC50 refers to the concentration needed to bring the measured effect to its halfway point. As a reminder, the IC50 is the concentration needed to halve the response being measured. `Cc1c(F)cc(-c2cccc(F)c2)cc1CNc1c(F)ccc(OCC(=O)O)c1F` [I(aa), 2-[2,4-difluoro-3-[[3-fluoro-5-(3-fluorophenyl)-2-methylphenyl]methylamino]phenoxy]acetic acid]: in test [1], the 50% effective concentration (EC50) came to 3 nM and the “In vitro functional assay EP2 (h) % response” value is reported as 97%. In addition, in test [2], the IC50 is above 300 nM.
For `Cc1cc(-c2cccc(F)c2)cc(CNc2c(F)ccc(OCC(=O)O)c2C)c1F` [I(ad), 2-[4-fluoro-3-[[2-fluoro-5-(3-fluorophenyl)-3-methyl-phenyl]methylamino]-2-methyl-phenoxy]acetic acid] the same measures were 2 nM, 101% and above 300 nM.
For `Cc1cc(-c2cccc(F)c2)cc(CNc2c(C)ccc(OCC(=O)O)c2C)c1F` [I(ag), 2-[3-[[2-fluoro-5-(3-fluorophenyl)-3-methyl-phenyl]methylamino]-2,4-dimethyl-phenoxy]acetic acid] the same measures were below 1 nM, 85% and above 300 nM.
For `Cc1cc(-c2cccc(F)c2)cc(CNc2c(C)ccc(OCC(=O)O)c2C)c1C` [I(ak), 2-[3-[[5-(3-fluorophenyl)-2,3-dimethyl-phenyl]methylamino]-2,4-dimethyl-phenoxy]acetic acid], in test [1], the half-maximal effective concentration (EC50) was 2 nM and the “In vitro functional assay EP2 (h) % response” value was 113%. Further, the IC50 in test [2] is above 300 nM.
For `COc1c(C)cc(-c2cccc(F)c2)cc1CNc1c(C)ccc(OCC(=O)O)c1C` [I(al), 2-[3-[[5-(3-fluorophenyl)-2-methoxy-3-methyl-phenyl]methylamino]-2,4-dimethyl-phenoxy]acetic acid] the same measures were 0.9 nM, 70% and above 300 nM.
For `Cc1cc(-c2cccc(F)c2)cc(CNc2c(F)ccc(OCC(=O)O)c2C)c1C` [I(at), 2-[4-fluoro-3-[[5-(3-fluorophenyl)-2,3-dimethyl-phenyl]methylamino]-2-methyl-phenoxy]acetic acid] the same measures were 6 nM, 91% and above 300 nM.
Regarding `O=C(O)COc1ccc(F)c(NCc2cc(-c3cccc(F)c3)ccc2Cl)c1F` [I(l), 2-[3-[[2-Chloro-5-(3-fluorophenyl)phenyl]methylamino]-2,4-difluoro-phenoxy]acetic acid], in test [1], the 50% effective concentration (EC50) came out at 24 nM and the “In vitro functional assay EP2 (h) % response” value is 76%.
In the same order, the values of `Cc1c(OCC(=O)O)ccc(F)c1NCc1cc(-c2cccc(F)c2)ccc1F` [I(m), 2-[4-Fluoro-3-[[2-fluoro-5-(3-fluorophenyl)phenyl]methylamino]-2-methyl-phenoxy]acetic acid] are 10 nM and 89%.
For `O=C(O)COc1ccc(F)c(NCc2cc(F)cc(-c3cccc(F)c3)c2)c1F` [I(n), 2-[2,4-Difluoro-3-[[3-fluoro-5-(3-fluorophenyl)phenyl]methylamino]phenoxy]acetic acid], in test [1], the concentration for a half-maximal effect (EC50) was determined as 52 nM and the “In vitro functional assay EP2 (h) % response” value was 86%.
Consider `O=C(O)COc1ccc(F)c(NCc2cc(-c3cccc(F)c3)ccc2F)c1Cl` [I(o), 2-[2-Chloro-4-fluoro-3-[[2-fluoro-5-(3-fluorophenyl)phenyl]methylamino]phenoxy]acetic acid], for which, in test [1], the EC50 amounted to 34 nM and the “In vitro functional assay EP2 (h) % response” value is 74%.
For `O=C(O)COc1ccc(F)c(NCc2cc(O)cc(-c3cccc(F)c3)c2)c1F` [I(p), 2-[2,4-Difluoro-3-[[3-(3-fluorophenyl)-5-hydroxy-phenyl]methylamino]phenoxy]acetic acid] the same measures were 17 nM and 70%.
Take `COc1cc(CNc2c(F)ccc(OCC(=O)O)c2F)cc(-c2cccc(F)c2)c1` [I(q), 2-[2,4-Difluoro-3-[[3-(3-fluorophenyl)-5-methoxy-phenyl]methylamino]phenoxy]acetic acid]: in test [1], the EC50 is 18 nM and the “In vitro functional assay EP2 (h) % response” value is recorded as 70%.
In the case of `O=C(O)COc1ccc(F)c(NCc2c(F)ccc(-c3cccc(F)c3)c2F)c1F` [I(s), 2-[3-[[2,6-Difluoro-3-(3-fluorophenyl)phenyl]methylamino]-2,4-difluoro-phenoxy]acetic acid], in test [1], the EC50 stood at 17 nM and the “In vitro functional assay EP2 (h) % response” value was 72%.
Turning to `COc1c(C)cc(-c2cccc(F)c2)cc1CNc1c(F)ccc(OCC(=O)O)c1F` [I(t), 2-[2,4-Difluoro-3-[[5-(3-fluorophenyl)-2-methoxy-3-methyl-phenyl]methylamino]phenoxy]acetic acid], in test [1], the EC50 was found to be 17 nM and the “In vitro functional assay EP2 (h) % response” value turned out to be 73%.
For `Cc1cc(-c2cccc(F)c2)cc(CNc2c(F)ccc(OCC(=O)O)c2F)c1O` [I(u), 2-[2,4-Difluoro-3-[[5-(3-fluorophenyl)-2-hydroxy-3-methyl-phenyl]methylamino]phenoxy]acetic acid] the same measures were 9 nM and 78%.
For the molecule `Cc1cc(-c2cccc(F)c2)cc(CNc2c(F)ccc(OCC(=O)O)c2F)c1C` [I(v), 2-[2,4-Difluoro-3-[[5-(3-fluorophenyl)-2,3-dimethyl-phenyl]methylamino]phenoxy]acetic acid], in test [1], the EC50 came out at 2 nM and the “In vitro functional assay EP2 (h) % response” value is 85%.
In the same order, the values of `O=C(O)COc1ccc(F)c(NCc2cc(-c3ccc(F)c(F)c3)ccc2F)c1F` [I(w), 2-[3-[[5-(3,4-difluorophenyl)-2-fluoro-phenyl]methylamino]-2,4-difluoro-phenoxy]acetic acid] are 14 nM and 40%.
Consider `N#Cc1cc(CNc2c(F)ccc(OCC(=O)O)c2F)cc(-c2cccc(F)c2)c1` [I(x), 2-[3-[[3-cyano-5-(3-fluorophenyl)phenyl]methylamino]-2,4-difluoro-phenoxy]acetic acid], for which, in test [1], the EC50 is 27 nM and the “In vitro functional assay EP2 (h) % response” value came to 45%.
Consider `Cc1c(-c2cccc(F)c2)ccc(F)c1CNc1c(F)ccc(OCC(=O)O)c1F` [I(y), 2-[2,4-difluoro-3-[[6-fluoro-3-(3-fluorophenyl)-2-methyl-phenyl]methylamino]phenoxy]acetic acid], for which, in test [1], the EC50 turned out to be 130 nM and the “In vitro functional assay EP2 (h) % response” value is on record as 62%.
Regarding `NC(=O)c1cc(CNc2c(F)ccc(OCC(=O)O)c2F)cc(-c2cccc(F)c2)c1` [I(z), 2-[3-[[3-carbamoyl-5-(3-fluorophenyl)phenyl]methylamino]-2,4-difluoro-phenoxy]acetic acid], in test [1], the EC50 came to 4 nM and the “In vitro functional assay EP2 (h) % response” value is 53%.
